Results as given in ChEMBL document CHEMBL1135845, “N-(arylacetyl)-biphenylalanines as potent VLA-4 antagonists” (Bioorg Med Chem Lett, 2002).

Columns and labels:
[1] = Inhibition of VLA-4 binding to radiolabeled vascular cell adhesion molecule-1 (VCAM-1) Ig fusion protein in human Jurkat cells; type: cell-based
[2] = Plasma clearance rate in Sprague-Dawley rats; type: ADME, organism-based; conditions: rat, read-out: Clp
Integrin alpha-4/beta-7 = molecular target: T1, Integrin alpha-4/beta-7 (Homo sapiens, UniProt P13612+P26010); assay: Inhibition of alpha4-beta7 integrin binding to radiolabeled vascular cell adhesion molecule-1 (VCAM-1) Ig fusion protein in human Jurkat cells; type: cell-based
T1 sequence (P13612 whole entry): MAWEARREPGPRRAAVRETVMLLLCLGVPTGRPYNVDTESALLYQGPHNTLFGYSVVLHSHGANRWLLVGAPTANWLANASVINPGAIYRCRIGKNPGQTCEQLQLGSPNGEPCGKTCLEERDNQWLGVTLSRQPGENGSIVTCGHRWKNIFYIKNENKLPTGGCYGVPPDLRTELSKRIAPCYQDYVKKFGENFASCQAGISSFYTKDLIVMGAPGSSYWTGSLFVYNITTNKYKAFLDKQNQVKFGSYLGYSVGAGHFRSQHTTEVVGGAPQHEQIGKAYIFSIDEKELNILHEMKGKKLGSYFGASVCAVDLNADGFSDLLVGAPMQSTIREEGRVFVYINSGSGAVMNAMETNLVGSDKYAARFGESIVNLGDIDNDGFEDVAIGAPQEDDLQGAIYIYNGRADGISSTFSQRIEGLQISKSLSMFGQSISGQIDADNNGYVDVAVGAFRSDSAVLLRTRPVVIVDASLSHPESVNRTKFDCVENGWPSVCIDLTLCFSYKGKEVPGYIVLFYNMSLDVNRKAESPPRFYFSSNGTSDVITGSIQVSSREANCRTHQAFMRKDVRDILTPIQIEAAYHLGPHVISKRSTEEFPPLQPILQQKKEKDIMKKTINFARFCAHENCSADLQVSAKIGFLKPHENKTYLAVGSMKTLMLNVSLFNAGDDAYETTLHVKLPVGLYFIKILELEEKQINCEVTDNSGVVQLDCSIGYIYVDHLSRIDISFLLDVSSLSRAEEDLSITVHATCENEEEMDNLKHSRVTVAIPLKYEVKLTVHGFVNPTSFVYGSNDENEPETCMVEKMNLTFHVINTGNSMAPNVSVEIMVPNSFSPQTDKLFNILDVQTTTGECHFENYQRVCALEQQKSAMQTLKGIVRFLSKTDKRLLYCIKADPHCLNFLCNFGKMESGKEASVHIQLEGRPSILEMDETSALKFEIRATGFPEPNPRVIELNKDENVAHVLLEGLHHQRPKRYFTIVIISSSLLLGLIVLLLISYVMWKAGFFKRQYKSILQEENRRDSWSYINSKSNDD
T1 sequence (P26010 whole entry): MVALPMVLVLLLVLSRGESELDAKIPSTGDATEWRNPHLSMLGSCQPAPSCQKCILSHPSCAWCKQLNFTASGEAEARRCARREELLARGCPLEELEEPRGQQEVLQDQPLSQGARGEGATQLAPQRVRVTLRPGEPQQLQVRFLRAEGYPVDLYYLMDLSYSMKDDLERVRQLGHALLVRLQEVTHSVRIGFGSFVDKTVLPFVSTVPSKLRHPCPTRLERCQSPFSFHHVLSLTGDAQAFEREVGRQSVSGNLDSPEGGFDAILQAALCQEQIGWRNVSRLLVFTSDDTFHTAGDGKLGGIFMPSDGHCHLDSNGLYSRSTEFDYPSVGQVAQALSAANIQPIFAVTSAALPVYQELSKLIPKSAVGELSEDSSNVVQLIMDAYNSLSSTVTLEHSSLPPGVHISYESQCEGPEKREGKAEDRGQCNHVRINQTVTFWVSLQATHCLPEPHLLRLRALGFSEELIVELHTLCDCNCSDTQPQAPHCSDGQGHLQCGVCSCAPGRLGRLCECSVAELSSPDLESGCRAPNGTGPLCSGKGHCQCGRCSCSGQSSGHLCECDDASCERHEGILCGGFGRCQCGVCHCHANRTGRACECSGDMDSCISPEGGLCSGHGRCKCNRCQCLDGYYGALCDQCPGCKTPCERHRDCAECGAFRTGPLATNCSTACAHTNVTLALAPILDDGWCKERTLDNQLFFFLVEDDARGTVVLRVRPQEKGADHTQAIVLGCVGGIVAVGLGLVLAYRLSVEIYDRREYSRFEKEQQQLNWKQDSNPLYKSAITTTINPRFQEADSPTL

[3] = Bioavailability in rat (Sprague-Dawley) (dose 1 mg/kg i.v. and 2 mg/kg p.o.); type: ADME, organism-based; conditions: in vivo, po
[4] = Plasma half-life was determined in Sprague-Dawley rats after 0-8 h administration of the compound; type: ADME, organism-based; conditions: rat

| Compound | IC50 [1] | clearance [2] | IC50 (Integrin alpha-4/beta-7) | bioavailability [3] | half-life [4] |
| --- | --- | --- | --- | --- | --- |
| COc1ccccc1-c1ccc(C[C@H](NC(=O)Cc2ccc(Cl)cc2Cl)C(=O)O)cc1 | 16.6 nM | – | – | – | – |
| COc1ccccc1-c1ccc(C[C@H](NC(=O)Cc2ccncc2)C(=O)O)cc1 | 12.2 nM | – | – | – | – |
| COc1ccccc1-c1ccc(C[C@H](NC(=O)C2(c3ccncc3)CCCC2)C(=O)O)cc1 | 0.7 nM | > 100 mL/min/kg | 49 nM | 17% | 150 min |
| COc1ccccc1-c1ccc(C[C@H](NC(=O)C2(c3ccc(C)nc3)CCCC2)C(=O)O)cc1 | 1.3 nM | > 100 mL/min/kg | 36.3 nM | 12% | 18 min |
| COc1ccccc1-c1ccc(C[C@H](NC(C)=O)C(=O)O)cc1 | 262 nM | – | – | – | – |
| COc1ccccc1-c1ccc(C[C@H](NC(=O)C2(c3cccnc3)CCCCC2)C(=O)O)cc1 | 1.4 nM | 82 mL/min/kg | 158 nM | 6% | 24 min |
| COc1ccccc1-c1ccc(C[C@H](NC(=O)Cn2cnnn2)C(=O)O)cc1 | 14.4 nM | – | – | – | – |
| COc1ccccc1-c1ccc(C[C@H](NC(=O)C2(c3ccccc3)CC2)C(=O)O)cc1 | 90.7 nM | – | – | – | – |
| COc1ccccc1-c1ccc(C[C@H](NC(=O)Cc2ccc3ccccc3c2)C(=O)O)cc1 | 801 nM | – | – | – | – |
| COc1ccccc1-c1ccc(C[C@H](NC(=O)C2(c3cncc(Br)c3)CCCC2)C(=O)O)cc1 | 1.6 nM | – | 165 nM | – | – |
| COc1ccccc1-c1ccc(C[C@H](NC(=O)Cc2ccccc2)C(=O)O)cc1 | 264 nM | – | – | – | – |
| COc1ccccc1-c1ccc(C[C@H](NC(=O)C2(c3cccnc3)CCN(C(C)=O)CC2)C(=O)O)cc1 | 0.7 nM | – | 30 nM | – | – |
| COc1ccccc1-c1ccc(C[C@H](NC(=O)Cc2cccc(F)c2)C(=O)O)cc1 | 246 nM | – | – | – | – |
| COc1ccccc1-c1ccc(C[C@H](NC(=O)C2(c3cccnc3)CCCC2)C(=O)O)cc1 | 0.5 nM | 24 mL/min/kg | 9.9 nM | 35% | 66 min |
| COc1ccccc1-c1ccc(C[C@H](NC(=O)C2(c3cnc4ccccc4c3)CCCC2)C(=O)O)cc1 | 3.9 nM | – | 98 nM | – | – |
| COc1ccccc1-c1ccc(C[C@H](NC(=O)Cc2cccnc2)C(=O)O)cc1 | 12.9 nM | – | – | – | – |
| COc1ccccc1-c1ccc(C[C@H](NC(=O)C2(c3ccccc3)CCCC2)C(=O)O)cc1 | 3.2 nM | 21.5 mL/min/kg | 110 nM | 55% | 60 min |
| COc1ccccc1-c1ccc(C[C@H](NC(=O)C2(c3cccnc3)CCN(C)CC2)C(=O)O)cc1 | 1 nM | – | 51 nM | – | – |
| COc1ccccc1-c1ccc(C[C@H](NC(=O)C(C)(C)c2ccccc2)C(=O)O)cc1 | 14.1 nM | 7.5 mL/min/kg | – | 94% | 120 min |
| COc1ccccc1-c1ccc(C[C@H](NC(=O)C2(c3cccnc3)CC=CC2)C(=O)O)cc1 | 0.9 nM | – | 16.7 nM | – | – |
| COc1ccccc1-c1ccc(C[C@H](NC(=O)Cc2ccc(Cl)cc2)C(=O)O)cc1 | 315 nM | – | – | – | – |
| COc1ccccc1-c1ccc(C[C@H](NC(=O)C2(c3ccccn3)CCCC2)C(=O)O)cc1 | 3 nM | > 100 mL/min/kg | 215 nM | < 1% | – |
| COc1ccccc1-c1ccc(C[C@H](NC(=O)C2(c3ccc(O)nc3)CCCC2)C(=O)O)cc1 | 1.4 nM | > 100 mL/min/kg | 26 nM | 1% | – |
| COc1ccccc1-c1ccc(C[C@H](NC(=O)C2(c3cccnc3)CCC(C)C2)C(=O)O)cc1 (mixture of isomers) | 0.7 nM | – | 94 nM | – | – |

| Compound | IC50 [1] | clearance [2] | IC50 (Integrin alpha-4/beta-7) | bioavailability [3] | half-life [4] |
| --- | --- | --- | --- | --- | --- |
| COc1ccccc1-c1ccc(C[C@H](NC(=O)Cc2ccc(F)cc2)C(=O)O)cc1 | 129 nM | – | – | – | – |
| COc1ccccc1-c1ccc(C[C@H](NC(=O)C2(c3cccnc3)CCNCC2)C(=O)O)cc1 | 5.1 nM | – | 83 nM | – | – |
| COc1cc(C2(C(=O)N[C@@H](Cc3ccc(-c4ccccc4OC)cc3)C(=O)O)CCCC2)ccn1 | 0.8 nM | – | 15 nM | – | – |
| COc1ccccc1-c1ccc(C[C@H](NC(=O)C2(c3ccc(=O)n(C)c3)CCCC2)C(=O)O)cc1 | 2.1 nM | – | 18 nM | – | – |
| COc1ccccc1-c1ccc(C[C@H](NC(=O)Cc2ccc(-c3ccccc3)cc2)C(=O)O)cc1 | 607 nM | – | – | – | – |
| COc1ccccc1-c1ccc(C[C@H](NC(=O)Cc2ccccn2)C(=O)O)cc1 | 15.8 nM | – | – | – | – |
| COc1ccccc1-c1ccc(C[C@H](NC(=O)Cc2cccc([N+](=O)[O-])c2)C(=O)O)cc1 | 64.9 nM | – | – | – | – |
| COc1ccccc1-c1ccc(C[C@H](NC(=O)C2(c3cncc4ccccc34)CCCC2)C(=O)O)cc1 | 9.8 nM | – | 120 nM | – | – |
| COc1ccccc1-c1ccc(C[C@H](NC(=O)Cc2ccc([N+](=O)[O-])cc2)C(=O)O)cc1 | 44.9 nM | – | – | – | – |
| COc1ccccc1-c1ccc(C[C@H](NC(=O)Cc2cccc(C)c2)C(=O)O)cc1 | 30.9 nM | – | – | – | – |
| COc1ccccc1-c1ccc(C[C@H](NC(=O)C2(c3ccccc3)CCCCC2)C(=O)O)cc1 | 6.5 nM | – | – | – | – |
| COc1ccccc1-c1ccc(C[C@H](NC(=O)Cc2cccc(Cl)c2)C(=O)O)cc1 | 328 nM | – | – | – | – |
| COc1ccccc1-c1ccc(C[C@H](NC(=O)C(OC)c2ccccc2)C(=O)O)cc1 (some centres undefined) | 7.1 nM | – | – | – | – |
| COc1ccccc1-c1ccc(C[C@H](NC(=O)Cn2cnc(Cl)c2Cl)C(=O)O)cc1 | 6.15 nM | – | – | – | – |
| COc1ccccc1-c1ccc(C[C@H](NC(=O)Cc2c(Cl)cccc2Cl)C(=O)O)cc1 | 8 nM | – | – | – | – |
| COc1ccccc1-c1ccc(C[C@H](NC(=O)Cc2cccc3ccccc23)C(=O)O)cc1 | 145 nM | – | – | – | – |
| COc1ccccc1-c1ccc(C[C@H](NC(=O)C2(c3cccnc3C)CCCC2)C(=O)O)cc1 | 1.5 nM | > 100 mL/min/kg | 44 nM | 11% | 36 min |
| COc1ccccc1-c1ccc(C[C@H](NC(=O)Cc2ccccc2[N+](=O)[O-])C(=O)O)cc1 | 4.8 nM | – | – | – | – |
| COc1ccccc1-c1ccc(C[C@H](NC(=O)C2(c3cnccc3C)CCCC2)C(=O)O)cc1 | 1.2 nM | > 100 mL/min/kg | 22 nM | 1% | 12 min |
| COc1ccccc1-c1ccc(C[C@H](NC(=O)C2(c3ccnnc3)CCCC2)C(=O)O)cc1 | 0.5 nM | – | 33 nM | – | – |
| COc1ccccc1-c1ccc(C[C@H](NC(=O)C2(c3cccnc3)CCOCC2)C(=O)O)cc1 | 0.5 nM | > 100 mL/min/kg | 94 nM | < 1% | – |
| COc1ccccc1-c1ccc(C[C@H](NC(=O)Cc2ccccc2Cl)C(=O)O)cc1 | 36.8 nM | – | – | – | – |
| COc1ccccc1-c1ccc(C[C@H](NC(=O)C2(c3ccc[n+]([O-])c3)CCCC2)C(=O)O)cc1 | 3.2 nM | – | 180 nM | – | – |
